Molecular target: T1, Endothiapepsin (Cryphonectria parasitica, UniProt P11838)
T1 sequence (P11838 whole entry): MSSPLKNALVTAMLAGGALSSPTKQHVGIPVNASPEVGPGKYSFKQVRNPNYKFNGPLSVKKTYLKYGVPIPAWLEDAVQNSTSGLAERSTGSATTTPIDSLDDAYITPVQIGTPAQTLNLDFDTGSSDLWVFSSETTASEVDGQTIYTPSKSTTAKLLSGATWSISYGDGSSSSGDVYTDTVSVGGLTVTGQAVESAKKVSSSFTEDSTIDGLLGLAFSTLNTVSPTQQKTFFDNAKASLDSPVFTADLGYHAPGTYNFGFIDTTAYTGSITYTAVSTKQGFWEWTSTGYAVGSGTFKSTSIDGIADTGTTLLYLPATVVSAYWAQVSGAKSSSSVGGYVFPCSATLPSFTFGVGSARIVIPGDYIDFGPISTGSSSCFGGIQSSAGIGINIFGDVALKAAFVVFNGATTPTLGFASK
Test: Inhibition of Cryphonectria parasitica endothiapepsin using 2-aminobenzoyl-Thr-Ile-Nle-Phe(p-NO2)-Gln-Arg-NH2 as substrate assessed as hydrolysis of substrate into 2-aminobenzoyl-Thr-Ile-Nle and Phe(p-NO2)-GLn-Arg-NH2 by fluorescence-based spectrophotometric analysis

| IC50 | SMILES |
| --- | --- |
| 85 µM | N[C@H](C(=O)N/N=C/C1CCCC1)c1ccc(C(F)(F)F)cc1 (mixture of isomers) |
| 210 µM | N[C@H](C(=O)N/N=C/c1ccccc1)c1ccc(C(F)(F)F)cc1 (mixture of isomers) |

Source: ChEMBL document CHEMBL3739309, “Fragment growing exploiting dynamic combinatorial chemistry of inhibitors of the aspartic protease endothiapepsin” (Medchemcomm, 2015)
